# Experimental data from US20050106195A1, “N-octanoyl amino acid composition for slimming the human body” (priority 2003, published 2005).
# Tested on: human adipocytes
# Experiment: In vitro lipolytic activity: free fatty acid release from isolated human adipocytes in suspension
# Type: cell-based
# Details: 2 h at 37° C.; for Free fatty acid concentration: mean of five assays, control 11.54 ± 2.71
# Protocol: This is because triglycerides are stored in the adipocytes and constitute the fat reserve. For this reserve to diminish, which is the desired aim when slimming products are used, the triglycerides must be hydrolysed so that the fatty acids can be removed from the cell. Hydrolysis of the triglycerides to nonesterified fatty acids and glycerol is called lipolysis.
# The method described consists in incubating the products in the presence of human adipocytes in suspension, followed by the measurement of the nonesterified fatty acid level in the adipocyte incubation medium. The free fatty acid level thus reflects the hydrolysis of the triglycerides present in the adipocytes.
# The test is carried out using human adipocytes isolated and prepared as a cellular suspension. The adipocytes are isolated from the subcutaneous abdominal adipose tissue recovered during plastic surgery operations (abdominal plastic surgery operations) performed on women. The cells are isolated from fresh tissue. The adipose tissue is isolated and dissociated by the action of a collagenase (SIGMA™, 1 mg/ml, 30 minutes at 37° C., gentle stirring). Collagenase digests the connective tissue present in the adipose tissue. After digestion, the cells are filtered and washed in an appropriate culture medium containing MEM medium free of phenol red, free of glutamine (SIGMA)+2.2 mg/ml of sodium bicarbonate (GIBCO)+50 IU of penicillin (BIOWHITTAKER™)+50 μg/ml of streptomycin (BIOWHITTAKER™)+1% (v/v) of L-glutamine (BIOWHITTAKER™)+0.5% of lipid-free serum albumin (SIGMA™). The adipocyte suspension is used immediately after its preparation.
# The test products are diluted in the adipocyte culture medium. They are incubated with the cells in suspension for two hours at 37° C. (250 μl of product+250 μl of adipocyte suspension).
# After the incubation, the cell lysis is checked visually by the presence of a lipid layer at the surface of the cellular suspension. The supernatant media are collected. The free fatty acids are assayed by spectrophotometry using a commercial kit (NEFA™ C kit, WAKO), with reference to a fatty acid calibration series. The lypolytic activity of the products is evaluated relative to a control group incubated in the presence of adipocytes and in the absence of product. The reactivity of the adipocytes is systematically checked for the measurement of the lipolytic activity of the reference products, caffeine (1,3,7-trimethyl-xanthine) and theophylline (1,3-dimethyl-2,6-dihydroxy-purine). Five assays are performed for each of the test products. The lipolytic activity of LIPACIDE™ C8G, which contains active material 100% N-octanoylglycine, was thus evaluated.
# [1] = incubation concentration 0.0019 wt %/volume
# [2] = incubation concentration 0.0001 wt %/volume
# [3] = incubation concentration 0.0005 wt %/volume
# [4] = incubation concentration 0.0010 wt %/volume
SMILES,Lipolytic activity (compared with the control = 100) [1],Free fatty acid concentration [1],Lipolytic activity (compared with the control = 100) [2],Free fatty acid concentration [2],Lipolytic activity (compared with the control = 100) [3],Free fatty acid concentration [3],Lipolytic activity (compared with the control = 100) [4],Free fatty acid concentration [4]
"Cn1c(=O)c2c(ncn2C)n(C)c1=O [Caffeine, 1,3,7-trimethyl-xanthine, reference compound]",131,15.10 ± 4.11 µM,–,–,–,–,–,–
"CCCCCCCC(=O)NCC(=O)O [LIPACIDE ™ C8G, N-octanoylglycine]",–,–,206,23.83 ± 5.11 µM,219,25.30 ± 2.70 µM,223,25.75 ± 0.86 µM
